In patent US20230167109A1, “Aminopiperidine Amides, Derivatives, Compositions, and Uses Related to CXCR4 Modulation” (Emory University, priority 2020, published 2023):

How the values were obtained:
[1] = system: CXCR4-expressing infiltrating cells; assay: Immunohistochemistry of paw tissue with anti-CXCR4 antibody; format: in vivo; settings: paw tissue of Z7R-treated mouse vs inflamed tissue
Protocol: The avidin-biotin complex method was used to detect the proteins CXCR4 with anti-CXCR4 antibody (R&D System) at dilution 1:500. Formalin-fixed and paraffin-embedded tissues were deparaffinized and subsequently microwaved in 10 mM of sodium citrate buffer (pH 6.0) to retrieve antigens. After pre-incubation with hydrogen peroxide, avidin/biotin blocking kit (Invitrogen Co, CA), and horse serum (Vector Laboratories), the primary antibodies were applied overnight at 4° C. temperature. After incubation with the secondary antibody (rabbit anti-mouse biotinylated; Invitrogen Co, CA), the avidin-biotin complex was added and the enzyme activity was visualized with diaminobenzidine (ABC kit, Vector laboratories). Counterstaining was performed with hematoxylin.

MDA-MB-231 cells = assay: In vitro Matrigel invasion assay (chemotaxis towards CXCL12); format: cell-based; settings: Homo sapiens, compound at 100 nM, 200 ng/ml CXCL12 as chemoattractant, 22 h
Protocol: (§1) EC (effective concentration) was calculated as the concentration at which the compound blocks >50% of CXCR4-targeted peptidomimetic conjugate (rhodamine Red X-TN14003). The inhibition % against the chemoattract, CXCL12 was determined by Matrigel invasion assay using 100 nM of compounds.
(§2) After computer evaluation of chemical libraries, seven compounds were tested by in vitro assays. The first binding assay quantified the affinity of compounds to the receptor by measuring the fluorescence of CXCR4-targeted peptidomimetic conjugate (rhodamine Red X-TN14003) after treating CXCR4-positive with each compound, which presents a lower fluorescent intensity for the compound with higher affinity. […] As a secondary orthogonal functional assay, Matrigel invasion assays were performed which measures the inhibitory efficacies of compounds against the chemotaxis between CXCR4-positive cells and the chemokine, CXCL12.
Matrigel invasion chambers were used for invasion assays. MDA-MB-231 cells were cultured on a layer of Matrigel in the upper chamber with compounds at 100 nM, while 200 ng/ml of CXCL12 was added in the lower chamber as a chemoattractant. […] Invading cells at the bottom of the Matrigel were fixed in methanol and stained with H&E. The percentage of invading cells was determined by counting the H&E-stained cells.

[2] = system: carrageenan-induced paw edema; assay: In vivo anti-inflammation study, carrageenan-induced mouse paw edema model; settings: 10 mg/kg i.p., once a day; mice sacrificed 74 h after carrageenan; n=5
Protocol: Acute paw inflammation was induced by subcutaneous injection of 50 μL of λ-carrageenan in left hind paw. The mice in the treatment group were all administered Z7R at 10 mg/kg i.p., while control animals received corresponding i.p. injection of vehicle. Acute inflammation was induced by subcutaneous injection of […], of λ-carrageenan (1% w/v in saline) into the left hind paws of male nude mice (6 weeks, 20 g, Jackson Laboratory, Strain JAZ 007850 J:NU); the other hind paw was used as the non-inflammation control. The compounds were administered intraperitoneally (i.p. injection), 30 min after carrageenan challenge with the dose of 10 mg/kg using the formulation of 10% DMSO and 40% (2-hydroxypropyl)-β-cyclodextrin (CD) in PBS, and then once a day following the initial dose. The mice were sacrificed 74 h after inflammation was induced and 2 h after the last injection of the compounds. The hind paws of the mice were photographed, the thicknesses of the paws were measured by a caliper, and the weights of the paws were measured by a balance after transecting at the level of the malleoli. To quantify the edema, the measured values of the untreated group were subtracted from the treated group. The inflammation suppression percentage was calculated by comparing the compound-treated groups to the control group (n=5). Fixed paw tissue was sliced and stained with H&E for histology study.

CXCR4 = molecular target: T1, CXCR4 (Homo sapiens, UniProt P61073); assay: In vitro binding assay: blocking of CXCR4-targeted TN14003 conjugate on MDA-MB-231 cells
T1 construct: endogenous in cells; host or cells: MDA-MB-231
T1 sequence (P61073 whole entry): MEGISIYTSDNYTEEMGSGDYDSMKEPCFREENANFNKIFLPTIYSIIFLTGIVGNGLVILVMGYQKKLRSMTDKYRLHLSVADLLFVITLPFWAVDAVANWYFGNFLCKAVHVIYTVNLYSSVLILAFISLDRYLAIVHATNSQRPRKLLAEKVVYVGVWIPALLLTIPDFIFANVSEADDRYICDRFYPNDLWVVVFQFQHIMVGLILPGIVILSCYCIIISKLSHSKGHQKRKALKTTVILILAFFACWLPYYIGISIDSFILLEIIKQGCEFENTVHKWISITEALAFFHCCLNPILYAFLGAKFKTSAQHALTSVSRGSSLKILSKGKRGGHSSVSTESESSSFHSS
Protocol: as §1, §2
MDA-MB-231 cells were cultured in an eight-well slide chamber for two days. The cells were pre-incubated with the compounds for 15 min, and then fixed with 4% formaldehyde. […] Pictures were analyzed quantitatively with ImageJ. EC (effective concentration) is determined for the concentration at with the compound blocks >50% of CXCR4-targeted TN14003 conjugate using 1, 10, 100, and 1000 nM of compounds. […]

IC50 (CXCR4; fitted with GraphPad Prism 5, read-out: affinity IC50)	EC50 (CXCR4; compounds tested at 1, 10, 100 and 1000 nM, read-out: binding affinity (EC, effective concentration: concentration at which the compound blocks more than 50% of rhodamine Red X-TN14003))	Compound	CXCR4-expressing infiltrating cells in carrageenan-induced inflammatory tissue [1]	inhibition at 0.1 µM (MDA-MB-231 cells)	anti-inflammatory activity: reduction of edema (paw) weight vs untreated mice [2]
1.25 nM	–	N=C(N)NCCCC(N)C(=O)NC1CCN(C(=O)CCn2ccc3ccncc32)CC1 (stereo not drawn) [Z7R, N-(1-(3-(pyrrolo[2,3-c]pyridin-1-yl)propanoyl)piperidin-4-yl)-2-amino-5-guanidinopentanamide]	reduced presence of CXCR4s	78.5%	50%
–	100 nM	NC(C(=O)NC1CCN(C(=O)CCn2ccc3ccncc32)CC1)c1ccccc1 (stereo not drawn) [ZINC 72372983, N-(1-(3-(pyrrolo[2,3-c]pyridin-1-yl)propanoyl)piperidin-4-yl)-2-amino-2-phenylacetamide]	–	69%	–
